Patent publication US9540418B2, “Polypeptide specifically binding to rare earth nanoparticles and use thereof” (University of Science and Technology of China, priority 2012, dated 2017)

Tests used:
[1] = Competitive inhibition of REOB-1 phage binding to Nd2O3 by polypeptides (IC50); details: 100 μg Nd2O3, REOB-1 phages at a titer of 108, 2 hr incubation; read-out: IC50 (μM)* of polypeptides competitively inhibiting the binding of REOB-1 phages to Nd2O3 nanoparticles
Experimental: 100 μg Nd2O3 was mixed with the polypeptides, RE-1, AP-1, RE-2, RE-3, RE-4, RE-5, RE-6, RE-7, RE-8, RE-9, RE-10, etc., respectively. To the mixture, REOB-1 phages at a titer of 108 were added. After 2 hr of incubation, the number of REOB-1 phages binding to Nd2O3 was measured. IC50 value indicated the relative activity of various polypeptides competitively inhibiting the binding of REOB-1 phages to Nd2O3 nanoparticles. The polypeptide RE-1 and its analogues had different binding ability to Nd2O3.

[2] = system: LC3 type II in mice liver; assay: Western blotting of LC3 in mice livers after tail vein injection; assay type: in vivo; details: 300 μg (15 mg/kg) tail vein, 24 hr
Experimental: Western blotting is performed as follows: After an incubation of 24 h, the cells are collected and lysed with lysis buffer (purchased from Beyotime Biotechnology, China). The lysate is boiled in boiling water for 10 min, subjected to 15% SDS-PAGE, and then transferred to nylon membrane (purchased from Amersham Inc.) by a wet transfer. In the Western blotting, Anti-LC3 (Light Chain 3 Protein Antibody, purchased from Novus Inc., Catalog #: NB 100-2220) is used as primary antibody; GAPDH (purchased from Millipore Inc.) is used as internal reference; and Horseradish peroxidase (HRP) conjugated goat anti-rabbit IgG (H+L) (Goat Anti-Rabbit IgG (H+L), HRP Conjugate) (purchased from Promega Inc.) is used as secondary antibody.
Balb/c mice (purchased from SLAC Laboratory Animal (Shanghai, China), 6 weeks old, and weighed 20 g when used) were bred in a sterile housing, and then 300 μg (dosage: 15 mg/kg) UCN, UCN+PEG (containing 10 mg PEG), UCN+RE-1, UCP, UCP+RE-1, or UCP+AP-1 was injected through tail vein. An equal volume of normal saline was injected as a control. After 24 hr, the livers of the mice were removed and subjected to western blotting assay.

HeLa-LC3 cells = assay: RE-1 analogues blocking nanophosphor-induced autophagy (LC3 aggregates and vacuoles); assay type: cell-based
Experimental: UCN and UCP coated with RE-1 analogues RE-2, RE-3, or RE-5 were prepared as follows: 50 μg or 10 μg RE-1 analogues RE-2, RE-3, or RE-5 was mixed with 100 μg UCN or UCP, respectively, incubated at 37° C. for 2 hr, centrifuged at 12000 rpm, and then washed with water 3 times to remove the excess and unbound peptides. The resultant precipitate was resuspended in 100 μL water.
HeLa-LC3 cells were inoculated into a 96-well cell culture plate at a density of about 1-2×10^4 cells/well, and cultured overnight for further use. At first, the medium was replaced with fresh DMEM medium, and then 100 μg/mL UCN, UCN+RE-1, UCN+RE-2, UCN+RE-3, or UCN+RE-5 was added. An equal volume of PBS was used as blank. A mixture of 100 μg/mL UCN and 10 mg/mL PEG was used as negative control. A mixture of 100 mM trehalose and 50 μg RE-1 was used as positive control. After culturing for 24 hr, a fluorescence microscope was used to observe, image, and count.
HeLa-LC3 cells were inoculated into a 96-well cell culture plate at a density of about 1-2×10^4 cells/well, and cultured overnight for further use. At first, the medium was replaced with fresh DMEM medium, and then 100 μg/mL UCP, UCP+RE-1, UCP+RE-2, UCP+RE-3, or UCP+RE-5 was added. An equal volume of PBS was used as blank. After culturing for 24 hr, a fluorescence microscope was used to observe, image, and count.
The ability to induce cell autophagy was estimated by determining the numbers of LC3 aggregates and vacuoles.

[3] = Dissociation of FITC-RE-1 from UCN over time; assay type: binding; details: after 48 h, 37° C., shaking
Experimental: 250 μg FITC-RE-1 was thoroughly mixed with 500 μg UCN. The excess and unbound polypeptides were washed off. Then, the mixture was divided into five aliquots. The aliquots were gently shaked on a shaking table at 37° C. The amount of FITC-RE-1 dissociated in the supernatants was measured by using a fluorescence spectrophotometer at different time points (0 hr, 2 hr, 12 hr, 24 hr, and 48 hr).

HeLa cells = assay: Effect of RE-1 analogues on cytotoxicity induced by UCN, UCP (MTT, PI staining); assay type: cell-based; details: 1 mg/mL, 24 hr
Experimental: MTT cell vitality assay is performed as follows: The cells to which samples have been added are cultured for 24 hr, and then 0.5 mg/mL MTT solution is added and cultured for 4 hr. The MTT solution in the well is discharged, and then 200 μL DMSO is added, followed by gently shaking the plate on a shaking table for 10 min. Detection is performed using microplate reader (ELX800, purchased from BIO-TEK) at a wavelength of 570 nm.
PI staining assay is performed as follows: The cells to which samples have been added are cultured for 24 hr, and then to the culture Hoechst 33342 (10 mM, purchased from Sigma, USA, Catalog #: B2261) and PI (Propidium Iodide) (10 mM, purchased from Beyotime Biotechnology, Catalog #: ST511) are added for 10 min of staining. Then, the cells are detected and photographed under a fluorescence microscope (Olympus IX71, purchased from Olympus). The number of the cells counted by this assay was 500.
HeLa cells were inoculated into 96-well cell culturing plate at a density of about 1-2×10^4 cells/well, and cultured overnight for further use. At first, the medium was replaced with fresh DMEM medium, and then 1 mg/mL UCN, UCP, UCN+PEG (containing 10 mg PEG), UCN+RE-1, UCP, UCP+RE-1, UCN+RE-2, UCN+RE-3, UCN+RE-5, UCP+RE-2, UCP+RE-3, or UCP+RE-5 were added, respectively. After culturing for 24 hr, MTT cell viability assay and PI staining were performed to detect the mortality of the cells.

[4] = Sedimentation / suspension time-dynamics curve of UCP (UV 500 nm); assay type: physicochemical; details: standing for 120 min; UCP with or without RE-1 coating
Experimental: 3 mg of UCN was mixed with 1.5 mg of RE-1 or its analogues RE-2, RE-3, or RE-5 as well as PEG, and the binding between them was performed according to a binding method. The excess and unbound RE-1 was washed off. The resultant precipitate was resuspended in 3 mL water, sonicated for 1 min, and then placed into a UV detection cell (X72053, Alpha Laboratories Ltd, UK). Observation was made using a UV spectrophotometer (DU-640, Beckman, USA) at an absorption wavelength of 500 nm for 120 min to obtain a time-dynamics curve.
The process described above was repeated except that 3 mg UCP and 500 μg RE-1 or its analogues RE-2, RE-3, RE-4, RE-5, RE-6, RE-7, RE-8, RE-9, or RE-10 and AP-1 were used. A time-dynamics curve was obtained.

ACTARSPWICG [RE-1, RE-0 with terminal amino acids A and G added]
IC50 [1]: 3.01 ± 0.14 µM
effect of RE-1 coating of UCN and UCP on LC3 type II in mice liver [2]: significantly prevented the increase of LC3 type II
rank of ability after coating UCN to inhibit cell autophagy induced by UCN (HeLa-LC3 cells; 100 μg/mL, 24 hr): RE-1>RE-3>RE-5
inhibition of cell autophagy induced by Tre (trehalose) (HeLa-LC3 cells; mixture of 100 mM trehalose and 50 μg RE-1): had no inhibition
dissociation from UCN [3]: less than 0.7%
inhibitory effect of coating on cytotoxicity induced by UCN and UCP (HeLa cells): RE-1>RE-3>RE-5
suspension / sedimentation of UCP in water [4]: still in suspension
